Results on eight compounds are retold here after article PMC9572860, “Antiprotozoal Activity of Azabicyclo-Nonanes Linked to Tetrazole or Sulfonamide Cores” (Molecules, 2022).

Series [1] is described as follows: In vitro cytotoxicity with L-6 cells. In kind it is cell-based, rat. The procedure: (§1) Compounds were tested for their activities against strains of P. falciparum and T. b. rhodesiense via microplate assays. Their cytotoxicity was determined with rat skeletal myoblasts (L-6 cells). Chloroquine and melarsoprol served as standards (Table 1).
(§2) Assays were performed in 96-well microtiter plates, each well containing 0.1 mL of RPMI 1640 medium supplemented with 1% L-glutamine (200 mM) and 10% fetal bovine serum and 4000 L-6 cells (a primary cell line derived from rat skeletal myoblasts, ATCC CRL-1458™). Serial drug dilutions of 11 three-fold dilution steps covering a range from 100 to 0.002 μg/mL were prepared. After 70 h of incubation, the plates were inspected under an inverted microscope to assure the growth of the controls and sterile conditions. Then, 0.01 mL resazurin solution (resazurin, 12.5 mg in 100 ml double-distilled water) was added to each well and the plates incubated for another 2 h. The plates were read with a Spectramax Gemini XS microplate fluorometer (Molecular Devices Cooperation, Sunnyvale, CA, USA) using an excitation wavelength of 536 nm and an emission wavelength of 588 nm. The IC50 values were calculated by linear regression from the sigmoidal dose inhibition curves using SoftmaxPro software (Molecular Devices Cooperation, Sunnyvale, CA, USA). Podophyllotoxin (Sigma P4405) was used as control.

Series [2] has as its system P. falciparum K1. Briefly: In vitro microplate 3H-hypoxanthine incorporation assay against P. falciparum K1. Type of series: cell-based, Plasmodium falciparum. To be noted: for S.I. = IC50 (Cyt.)/IC50 (P.f. K1): L-6 cytotoxicity over P.f. K1; for IC50: Plasmodium falciparum. As to the method: as §1
(§3) In vitro activity against erythrocytic stages of P. falciparum was determined using a ^3H-hypoxanthine incorporation assay, using the drug-sensitive NF54 strain [21] or the chloroquine- and pyrimethamine-resistant K1 strain [22]. Compounds were dissolved in DMSO at 10 mg/mL and added to parasite cultures incubated in RPMI 1640 medium without hypoxanthine, supplemented with HEPES (5.94 g/L), NaHCO3 (2.1 g/L), neomycin (100 U/mL), Albumax (5 g/L) and washed human red cells A+ at 2.5% hematocrit (0.3% parasitemia). Serial drug dilutions of 11 three-fold dilution steps covering a range from 100 to 0.002 µg/mL were prepared. The 96-well plates were incubated in a humidified atmosphere at 37 °C; 4% CO2, 3% O2, 93% N2. After 48 h, 0.05 mL of ^3H-hypoxanthine (=0.5 µCi) was added to each well of the plate. The plates were incubated for an additional 24 h under the same conditions. The plates were then harvested with a Betaplate cell harvester (Wallac, Zurich, Switzerland). The red blood cells were transferred onto a glass fiber filter and washed with distilled water. The dried filters were inserted into a plastic foil with 10 mL of scintillation fluid and counted in a Betaplate liquid scintillation counter (Wallac, Zurich, Switzerland). IC50 values were calculated from sigmoidal inhibition curves by linear regression using Microsoft Excel. Chloroquine (Sigma C6628) was used as control.

Series [3] deals with T. b. rhodesiense STIB 900. Briefly: In vitro microplate resazurin assay against T. brucei rhodesiense. Type of series: cell-based, Trypanosoma brucei rhodesiense. To be noted: for S.I. = IC50 (Cyt.)/IC50 (T.b.r.): L-6 cytotoxicity over T.b.r.; for IC50: Trypanosoma brucei, STIB 900 bloodstream forms, average of four determinations, read-out: T. Brucei Rhodesiense IC50. The procedure: as §1
Minimum essential medium (50 µL) supplemented with 25 mM HEPES, 1 g/L additional glucose, 1% MEM nonessential amino acids (100×), 0.2 mM 2-mercaptoethanol, 1 mM Na-pyruvate and 15% heat inactivated horse serum was added to each well of a 96-well microtiter plate. Serial drug dilutions of 11 three-fold dilution steps covering a range from 100 to 0.002 μg/mL were prepared. Then, 4 × 10^3 bloodstream forms of T. b. rhodesiense STIB 900 in 50 µL was added to each well and the plate incubated at 37 °C under a 5% CO2 atmosphere for 70 h. Ten microliters of resazurin solution (resazurin, 12.5 mg in 100 mL double-distilled water) was then added to each well and incubation continued for an additional 2–4 h. The plates were then read with a Spectramax Gemini XS microplate fluorometer (Molecular Devices Cooperation, Sunnyvale, CA, USA) using an excitation wavelength of 536 nm and an emission wavelength of 588 nm. Data were analyzed with the graphic program Softmax Pro (Molecular Devices Cooperation, Sunnyvale, CA, USA), which calculated IC50 values by linear regression and 4-parameter logistic regression from the sigmoidal dose inhibition curves. Melarsoprol (Arsobal Sanofi-Aventis, received from WHO) was used as control.
On the technique in general: Alamar Blue is a resazurin reagent that responds to reducing activity.

For series [4], the system named is P. falciparum NF54. Briefly: In vitro microplate 3H-hypoxanthine incorporation assay against P. falciparum NF54. Type of series: cell-based, Plasmodium falciparum. As to the method:
as §1, §3

The subject of series [5] is P. falciparum K1. Further details: method as in doi:10.1007/s00706-007-0634-1. The note with it: cited from earlier work; for IC50: K1 strain resistant to chloroquine and pyrimethamine; for S.I. = IC50 (Cyt.)/IC50 (P.f. K1): L-6 cytotoxicity over P.f. K1.
The subject of series [6] is L-6 cells. Further details: method as in doi:10.1007/s00706-007-0634-1. To be noted: rat skeletal myoblasts; read-out: Cytotox. L-6 Cells IC50; cited from earlier work.
The test system of series [7] is T. b. rhodesiense STIB 900. The arrangement: method as in doi:10.1007/s00706-007-0634-1. To be noted: cited from earlier work; for S.I. = IC50 (Cyt.)/IC50 (T.b.r.): L-6 cytotoxicity over T.b.r.; for IC50: read-out: T. Brucei Rhodesiense IC50.
Series [8] deals with L-6 cells. Briefly: In vitro cytotoxicity with L-6 cells. In kind it is cell-based, rat. The note with it: rat skeletal myoblasts; average of four determinations; read-out: Cytotox. L-6 Cells IC50. As to the method:
as §1, §2

Setting [9] is: K1 strain resistant to chloroquine and pyrimethamine, average of four determinations, read-out: P. Falciparum K1 IC50.

The structures appear in SMILES notation. Read-outs that look alike come from different tables or passages of the source.

Usually IC50 stands for the concentration that inhibits the measured activity by half.

`CN(C)C12CCN(CCN)C([C@@H](c3ccccc3)C1)[C@@H](c1ccccc1)C2` (racemic) [Compound 6, rac-(7R,8R)-2-[5-(Dimethylamino)-7,8-diphenyl-2-azabicyclo[3.2.2]nonan-2-yl]ethan-1-amine]: half-maximal inhibition in series [1] (rat) (IC50 at 72 h) required 21500 nM. In addition, the “S.I. = IC50 (Cyt.)/IC50 (P.f. K1)” value in series [2] was 59.7. Moreover, in series [2] (setting [9]), the IC50 is 360 nM. For the same compound, in series [3], the “S.I. = IC50 (Cyt.)/IC50 (T.b.r.)” value turned out to be 7.36 and the IC50 was found to be 2920 nM.

In series [1] (rat), `NCCN1CCC2(N3CCCCC3)C[C@H](c3ccccc3)C1[C@@H](c1ccccc1)C2` (racemic) [Compound 7, rac-(7R,8R)-2-[7,8-Diphenyl-5-(piperidin-1-yl)-2-azabicyclo[3.2.2]nonan-2-yl]ethan-1-amine] yielded an IC50 at 72 h of 16800 nM. Moreover, the “S.I. = IC50 (Cyt.)/IC50 (P.f. K1)” value in series [2] is recorded as 93.3. For the same compound, the values for the IC50 in series [2] (setting [9]) and in series [3] were 180 nM and 1940 nM, respectively. Also, in series [3], the “S.I. = IC50 (Cyt.)/IC50 (T.b.r.)” value amounted to 8.66.

On to `NCCN1CCC2(N3CCCC3)C[C@H](c3ccccc3)C1[C@@H](c1ccccc1)C2` (racemic) [Compound 8, rac-(7R,8R)-2-[7,8-Diphenyl-5-(pyrrolidin-1-yl)-2-azabicyclo[3.2.2]nonan-2-yl]ethan-1-amine], for which the IC50 at 72 h in series [1] (rat) was found to be 25800 nM. The “S.I. = IC50 (Cyt.)/IC50 (P.f. K1)” value in series [2] was 47.8. Moreover, in series [2] (setting [9]), the IC50 came to 540 nM. Also, in series [3], the “S.I. = IC50 (Cyt.)/IC50 (T.b.r.)” value was 22.8 and the IC50 worked out at 1130 nM.

In the case of `NCCN1CC2[C@H](c3ccccc3)CC(N3CCCC3)(C[C@H]2c2ccccc2)C1` (racemic) [Compound 9, rac-(6R,9R)-2-[6,9-Diphenyl-1-(pyrrolidin-1-yl)-3-azabicyclo[3.2.2]nonan-3-yl]ethan-1-amine], the IC50 at 72 h in series [1] (rat) was found to be 9120 nM. Also, the “S.I. = IC50 (Cyt.)/IC50 (P.f. K1)” value in series [2] is on record as 14.5. In series [2] (setting [9]), the IC50 amounted to 630 nM. Moreover, in series [3], the “S.I. = IC50 (Cyt.)/IC50 (T.b.r.)” value was found to be 21.7 and the IC50 worked out at 420 nM.

For the compound `CCN(CC)CCCC(C)Nc1ccnc2cc(Cl)ccc12` (stereo not drawn) [CQ, chloroquine, reference compound], the IC50 at 72 h in series [1] (rat skeletal myoblasts, average of four determinations, read-out: Cytotox. L-6 Cells IC50) amounted to 90900 nM. In series [2], the “S.I. = IC50 (Cyt.)/IC50 (P.f. K1)” value was found to be 606. Also, the IC50 in series [2] (K1, read-out: P. Falciparum K1 IC50) is 150 nM; in series [4] (Plasmodium falciparum, NF54, read-out: P. Falciparum NF54 IC50), 3.9 nM. For the same compound, the “S.I. = IC50 (Cyt.)/IC50 (P.f. NF54)” value in series [4] (L-6 cytotoxicity over P.f. NF54) worked out at 23308.

Take `Cc1ccc(S(=O)(=O)N2CCC3(N4CCCCC4)CC(c4ccccc4)C2C(c2ccccc2)C3)cc1` (stereo not drawn) [Compound 16]: in series [5], the IC50 is 1260 nM and the “S.I. = IC50 (Cyt.)/IC50 (P.f. K1)” value is 8.33. Besides, the IC50 in series [6] was 10500 nM. In series [7], the “S.I. = IC50 (Cyt.)/IC50 (T.b.r.)” value is 3.96 and the half-maximal inhibitory concentration (IC50) was 2650 nM.

Consider `Cc1ccc(S(=O)(=O)N2CCC3(N4CCCC4)CC(c4ccccc4)C2C(c2ccccc2)C3)cc1` (stereo not drawn) [Compound 17], for which, in series [5], the IC50 is 1300 nM and the “S.I. = IC50 (Cyt.)/IC50 (P.f. K1)” value is 7.25. In addition, the IC50 in series [6] is 9420 nM. Besides, in series [7], the “S.I. = IC50 (Cyt.)/IC50 (T.b.r.)” value is on record as 7.48 and the IC50 was 1260 nM.

For `COc1cc([C@@H]2c3cc4c(cc3[C@H](O)[C@H]3COC(=O)[C@H]23)OCO4)cc(OC)c1OC` [POD, podophyllotoxin, reference compound], the IC50 in series [8] worked out at 12 nM.
